ChEMBL document CHEMBL1909046, “DrugMatrix in vitro pharmacology data”

Legend:
[1] = DRUGMATRIX: Interleukin IL-1 radioligand binding (ligand: [125I] interleukin 1beta); format: cell membranes, Membrane; conditions: nih3t3; Not Active = under 50% inhibition at 10 µM
D(1A) dopamine receptor = D(1A) dopamine receptor (Homo sapiens, UniProt P21728); experiment: DRUGMATRIX: Dopamine D1 radioligand binding (ligand: [3H] SCH-23390); format: cell membranes, CHO, Membrane; conditions: Not Active = under 50% inhibition at 10 µM
D(1A) dopamine receptor, sequence (P21728 whole entry): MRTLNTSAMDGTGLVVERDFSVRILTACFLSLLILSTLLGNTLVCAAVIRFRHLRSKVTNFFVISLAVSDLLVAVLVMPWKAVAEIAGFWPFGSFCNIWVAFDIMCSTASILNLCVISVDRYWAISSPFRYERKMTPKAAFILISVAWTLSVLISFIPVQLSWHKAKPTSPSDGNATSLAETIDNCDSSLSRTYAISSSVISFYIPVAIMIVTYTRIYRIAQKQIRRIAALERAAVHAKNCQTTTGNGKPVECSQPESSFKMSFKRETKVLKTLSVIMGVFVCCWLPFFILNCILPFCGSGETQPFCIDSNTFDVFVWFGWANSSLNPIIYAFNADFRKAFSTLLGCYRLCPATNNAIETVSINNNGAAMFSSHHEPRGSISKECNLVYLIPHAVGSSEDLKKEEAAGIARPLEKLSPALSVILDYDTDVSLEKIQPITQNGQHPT

[2] = target: Delta-type opioid receptor (Homo sapiens, UniProt P41143); format: cell membranes, Membrane; conditions: hek293; also: in other assays of this panel Not Active means under 50% inhibition at 10 µM
Delta-type opioid receptor, sequence (P41143 whole entry): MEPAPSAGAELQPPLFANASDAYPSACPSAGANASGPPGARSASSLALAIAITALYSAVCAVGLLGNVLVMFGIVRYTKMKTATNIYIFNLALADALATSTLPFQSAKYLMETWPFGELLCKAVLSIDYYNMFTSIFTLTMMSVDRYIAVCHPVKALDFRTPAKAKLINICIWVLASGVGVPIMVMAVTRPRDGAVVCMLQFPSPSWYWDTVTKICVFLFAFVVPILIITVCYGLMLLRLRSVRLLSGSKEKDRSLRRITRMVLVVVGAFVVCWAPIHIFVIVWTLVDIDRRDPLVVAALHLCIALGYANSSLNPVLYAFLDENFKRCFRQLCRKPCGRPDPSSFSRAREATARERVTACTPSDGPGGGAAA

Acetylcholinesterase = Acetylcholinesterase (Homo sapiens, UniProt P22303); experiment: DRUGMATRIX: Acetylcholinesterase enzyme inhibition (substrate: acetylthiocholine); format: cell-based, HEK293; conditions: hek293; Not Active = under 50% inhibition at 10 µM
Acetylcholinesterase, sequence (P22303 whole entry): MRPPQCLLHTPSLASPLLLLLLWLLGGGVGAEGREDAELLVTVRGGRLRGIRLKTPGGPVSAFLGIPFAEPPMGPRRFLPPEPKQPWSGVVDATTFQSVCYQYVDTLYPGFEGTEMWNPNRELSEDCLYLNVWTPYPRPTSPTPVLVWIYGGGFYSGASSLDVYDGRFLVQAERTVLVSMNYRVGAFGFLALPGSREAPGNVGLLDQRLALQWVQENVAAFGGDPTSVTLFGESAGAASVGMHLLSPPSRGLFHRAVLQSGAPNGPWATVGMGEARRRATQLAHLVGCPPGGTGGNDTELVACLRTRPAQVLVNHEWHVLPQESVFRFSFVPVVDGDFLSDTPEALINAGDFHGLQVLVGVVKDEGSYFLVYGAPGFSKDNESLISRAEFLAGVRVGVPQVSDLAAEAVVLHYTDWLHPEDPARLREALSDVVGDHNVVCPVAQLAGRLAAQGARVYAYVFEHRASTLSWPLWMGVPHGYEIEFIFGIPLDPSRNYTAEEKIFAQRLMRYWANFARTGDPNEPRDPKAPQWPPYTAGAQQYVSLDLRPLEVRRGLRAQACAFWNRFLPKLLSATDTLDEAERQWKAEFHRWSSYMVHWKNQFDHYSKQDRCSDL

[3] = DRUGMATRIX: Purinergic P2X radioligand binding (ligand: [3H] alpha, beta-Methylene-ATP); format: cell membranes, Oryctolagus cuniculus, New Zealand albino, Urinary bladder, Membrane; conditions: Not Active = under 50% inhibition at 10 µM
D(4) dopamine receptor = target: T1, D(4) dopamine receptor (Homo sapiens, UniProt P21917); experiment: DRUGMATRIX: Dopamine D4.2 radioligand binding (ligand: [3H] Spiperone); format: cell membranes, CHO-K1, Membrane; conditions: cho-k1; Not Active = under 50% inhibition at 10 µM
T1 sequence (P21917 whole entry): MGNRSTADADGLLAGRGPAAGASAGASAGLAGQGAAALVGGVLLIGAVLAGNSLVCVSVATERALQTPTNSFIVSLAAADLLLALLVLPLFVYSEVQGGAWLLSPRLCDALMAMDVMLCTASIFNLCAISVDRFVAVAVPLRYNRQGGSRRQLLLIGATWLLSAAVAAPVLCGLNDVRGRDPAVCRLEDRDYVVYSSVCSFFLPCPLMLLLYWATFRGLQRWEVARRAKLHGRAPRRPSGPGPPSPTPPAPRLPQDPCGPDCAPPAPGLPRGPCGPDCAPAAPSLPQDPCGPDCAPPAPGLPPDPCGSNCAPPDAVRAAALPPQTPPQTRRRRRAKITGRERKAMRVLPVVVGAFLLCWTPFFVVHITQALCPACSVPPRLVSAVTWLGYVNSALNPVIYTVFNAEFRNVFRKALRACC

[4] = target: Prostaglandin G/H synthase 1 (Homo sapiens, UniProt P23219); experiment: biochemical; format: tissue-based, Platelet;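 also: inhibition of COX-1 enzyme activity, with arachidonic acid supplied as substrate; in other assays of this panel Not Active means under 50% inhibition at 10 µM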
Prostaglandin G/H synthase 1, sequence (P23219 whole entry): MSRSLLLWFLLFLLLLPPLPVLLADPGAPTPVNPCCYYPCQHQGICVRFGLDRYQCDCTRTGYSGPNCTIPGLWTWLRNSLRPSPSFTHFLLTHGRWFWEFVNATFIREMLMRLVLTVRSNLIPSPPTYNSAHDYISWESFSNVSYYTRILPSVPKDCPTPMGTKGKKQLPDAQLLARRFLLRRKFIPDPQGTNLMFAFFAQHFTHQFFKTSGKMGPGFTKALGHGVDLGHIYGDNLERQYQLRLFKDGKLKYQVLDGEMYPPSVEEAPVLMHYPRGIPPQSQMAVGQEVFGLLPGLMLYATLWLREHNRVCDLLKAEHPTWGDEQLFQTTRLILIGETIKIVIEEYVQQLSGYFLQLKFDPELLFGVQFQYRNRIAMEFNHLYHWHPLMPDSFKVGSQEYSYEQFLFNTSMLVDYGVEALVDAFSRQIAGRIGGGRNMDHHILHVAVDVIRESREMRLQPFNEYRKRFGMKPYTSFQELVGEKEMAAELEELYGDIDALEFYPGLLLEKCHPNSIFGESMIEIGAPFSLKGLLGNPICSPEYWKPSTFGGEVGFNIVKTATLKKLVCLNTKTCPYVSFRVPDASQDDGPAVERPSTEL

Insulin receptor = Insulin receptor (Rattus norvegicus, UniProt P15127); format: cell membranes, Wistar, Liver, Membrane; also: in other assays of this panel Not Active means under 50% inhibition at 10 µM
Insulin receptor, sequence (P15127 27-759 limits assumed): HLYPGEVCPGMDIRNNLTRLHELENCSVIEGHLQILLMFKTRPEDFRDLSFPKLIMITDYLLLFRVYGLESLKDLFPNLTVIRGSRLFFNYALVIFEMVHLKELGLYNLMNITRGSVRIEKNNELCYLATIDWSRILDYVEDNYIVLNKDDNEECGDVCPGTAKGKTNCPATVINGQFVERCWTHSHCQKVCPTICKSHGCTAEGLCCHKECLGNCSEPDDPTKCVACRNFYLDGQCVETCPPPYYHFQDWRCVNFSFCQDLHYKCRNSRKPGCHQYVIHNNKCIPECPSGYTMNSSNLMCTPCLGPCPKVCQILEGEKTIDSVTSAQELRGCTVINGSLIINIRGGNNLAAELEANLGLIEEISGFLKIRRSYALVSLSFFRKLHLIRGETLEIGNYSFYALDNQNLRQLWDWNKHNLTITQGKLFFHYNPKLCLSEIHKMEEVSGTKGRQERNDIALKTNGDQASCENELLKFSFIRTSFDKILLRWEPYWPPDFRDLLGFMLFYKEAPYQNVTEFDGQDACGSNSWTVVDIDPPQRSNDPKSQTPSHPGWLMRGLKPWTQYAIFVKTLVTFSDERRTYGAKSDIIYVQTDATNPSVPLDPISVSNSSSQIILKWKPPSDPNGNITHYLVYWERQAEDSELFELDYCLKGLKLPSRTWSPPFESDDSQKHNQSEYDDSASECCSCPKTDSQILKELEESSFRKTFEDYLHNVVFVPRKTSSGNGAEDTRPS
Insulin receptor, sequence (P15127 764-1383 limits assumed): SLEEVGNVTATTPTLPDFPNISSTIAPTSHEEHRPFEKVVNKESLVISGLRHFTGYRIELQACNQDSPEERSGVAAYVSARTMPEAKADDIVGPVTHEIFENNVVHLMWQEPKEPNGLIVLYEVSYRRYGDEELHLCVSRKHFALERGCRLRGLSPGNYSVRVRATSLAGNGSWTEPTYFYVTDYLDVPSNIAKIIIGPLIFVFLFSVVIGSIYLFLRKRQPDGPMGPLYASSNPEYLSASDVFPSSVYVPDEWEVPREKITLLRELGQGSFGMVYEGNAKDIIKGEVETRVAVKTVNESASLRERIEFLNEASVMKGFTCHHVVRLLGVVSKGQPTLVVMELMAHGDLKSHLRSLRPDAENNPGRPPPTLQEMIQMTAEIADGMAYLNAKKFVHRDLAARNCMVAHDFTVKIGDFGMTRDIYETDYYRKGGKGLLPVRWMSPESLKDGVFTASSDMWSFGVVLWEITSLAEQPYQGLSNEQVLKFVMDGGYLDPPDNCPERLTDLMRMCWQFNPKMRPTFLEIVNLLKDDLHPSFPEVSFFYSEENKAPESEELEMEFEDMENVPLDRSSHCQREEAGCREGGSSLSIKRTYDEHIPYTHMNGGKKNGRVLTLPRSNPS

Row | Compound | IC50 [1] | Ki [1] | IC50 (D(1A) dopamine receptor; cho) | IC50 [2] | IC50 (Acetylcholinesterase) | IC50 [3] | Ki [3] | IC50 (D(4) dopamine receptor) | IC50 ([4]; platelet) | IC50 (Insulin receptor) | IC50 (D(1A) dopamine receptor; read-out: IC50) | Ki (D(1A) dopamine receptor; read-out: Ki) | IC50 ([4]; read-out: IC50)
1 | CN/C(=N\CCSCc1nc[nH]c1C)NC#N [CIMETIDINE] | Not Active | Not Active | Not Active | Not Active | Not Active | Not Active | Not Active | Not Active | Not Active | Not Active | – | – | –
2 | COc1cc(N)c(Cl)cc1C(=O)NC1CCN(CCCOc2ccc(F)cc2)CC1OC (stereo unspecified) [CISAPRIDE] | Not Active | Not Active | Not Active | Not Active | Not Active | Not Active | Not Active | Not Active | Not Active | Not Active | – | – | –
3 | CCC(=O)O[C@]1(C(=O)CCl)[C@@H](C)C[C@H]2[C@@H]3CCC4=CC(=O)C=C[C@]4(C)[C@@]3(F)[C@@H](O)C[C@@]21C [CLOBETASOL PROPIONATE] | Not Active | Not Active | Not Active | Not Active | Not Active | Not Active | Not Active | Not Active | Not Active | Not Active | – | – | –
4 | O=C1CN=C(c2ccccc2Cl)c2cc([N+](=O)[O-])ccc2N1 [CLONAZEPAM] | Not Active | Not Active | Not Active | Not Active | Not Active | Not Active | Not Active | Not Active | Not Active | Not Active | – | – | –
5 | Nc1ccn([C@@H]2O[C@H](CO)[C@@H](O)[C@@H]2O)c(=O)n1 [CYTARABINE] | Not Active | Not Active | Not Active | Not Active | Not Active | Not Active | Not Active | Not Active | Not Active | Not Active | – | – | –
6 | C[C@@H]1C[C@H]2[C@@H]3CCC4=CC(=O)C=C[C@]4(C)[C@@]3(F)[C@@H](O)C[C@]2(C)[C@H]1C(=O)CO [DESOXIMETASONE] | Not Active | Not Active | Not Active | Not Active | Not Active | Not Active | Not Active | Not Active | Not Active | Not Active | – | – | –
7 | C[C@@H]1C[C@H]2[C@@H]3CCC4=CC(=O)C=C[C@]4(C)[C@@]3(F)[C@@H](O)C[C@]2(C)[C@@]1(O)C(=O)CO [DEXAMETHASONE] | Not Active | Not Active | Not Active | Not Active | Not Active | Not Active | Not Active | Not Active | Not Active | Not Active | – | – | –
8 | CN(C)CC[C@@H](c1ccc(Cl)cc1)c1ccccn1 [DEXCHLORPHENIRAMINE] | Not Active | Not Active | Not Active | Not Active | Not Active | Not Active | Not Active | Not Active | Not Active | Not Active | – | – | –
9 | C[C@@H]1CC[C@@]2(OC1)O[C@H]1[C@@H](O)[C@H]3[C@@H]4CC[C@H]5C[C@@H](O[C@@H]6O[C@H](CO)[C@H](O[C@@H]7O[C@H](CO)C(O)[C@H](O[C@@H]8OC[C@@H](O)[C@H](O)[C@H]8O)[C@H]7O[C@@H]7O[C@H](CO)[C@H](O)[C@H](O[C@@H]8O[C@H](CO)[C@@H](O)[C@H](O)[C@H]8O)[C@H]7O)[C@H](O)[C@H]6O)[C@H](O)C[C@]5(C)[C@H]4CC[C@]3(C)[C@H]1[C@@H]2C (stereo partly specified) [DIGITONIN] | Not Active | Not Active | Not Active | Not Active | Not Active | Not Active | Not Active | Not Active | Not Active | Not Active | – | – | –
10 | OC(CCCN1CCCCC1)(c1ccccc1)c1ccccc1 [DIPHENIDOL] | Not Active | Not Active | Not Active | Not Active | Not Active | Not Active | Not Active | Not Active | Not Active | Not Active | – | – | –
11 | C[C@H]1O[C@@H](n2cc(F)c(=O)[nH]c2=O)[C@H](O)[C@@H]1O [DOXIFLURIDINE] | Not Active | Not Active | Not Active | Not Active | Not Active | Not Active | Not Active | Not Active | Not Active | Not Active | – | – | –
12 | Cn1c(=O)c2c(ncn2CC(O)CO)n(C)c1=O (stereo unspecified) [DYPHYLLINE] | Not Active | Not Active | Not Active | Not Active | Not Active | Not Active | Not Active | Not Active | Not Active | Not Active | – | – | –
13 | CC[C@H]1CN2CCc3cc(OC)c(OC)cc3[C@@H]2C[C@@H]1C[C@H]1NCCc2cc(OC)c(OC)cc21 [EMETINE] | Not Active | Not Active | Not Active | Not Active | Not Active | Not Active | Not Active | Not Active | Not Active | Not Active | – | – | –
14 | C[C@@H](CO)NC(=O)[C@@H]1C=C2c3cccc4[nH]cc(c34)C[C@H]2N(C)C1 [ERGONOVINE] | Not Active | Not Active | – | Not Active | Not Active | Not Active | Not Active | Not Active | Not Active | Not Active | 5900 nM | 2950 nM | –
15 | COC(=O)CCc1ccc(OCC(O)CNC(C)C)cc1 (stereo unspecified) [ESMOLOL] | Not Active | Not Active | Not Active | Not Active | Not Active | Not Active | Not Active | Not Active | Not Active | Not Active | – | – | –
16 | CCC1(C)CC(=O)NC1=O (stereo unspecified) [ETHOSUXIMIDE] | Not Active | Not Active | Not Active | Not Active | Not Active | Not Active | Not Active | Not Active | Not Active | Not Active | – | – | –
17 | C#C[C@]1(OC(C)=O)CC[C@H]2[C@@H]3CCC4=C[C@@H](OC(C)=O)CC[C@@H]4[C@H]3CC[C@@]21C [ETHYNODIOL DIACETATE] | Not Active | Not Active | Not Active | Not Active | Not Active | Not Active | Not Active | Not Active | Not Active | Not Active | – | – | –
18 | COc1cc([C@@H]2c3cc4c(cc3[C@@H](O[C@@H]3O[C@@H]5CO[C@@H](C)O[C@H]5[C@H](O)[C@H]3O)[C@H]3COC(=O)[C@H]23)OCO4)cc(OC)c1O [ETOPOSIDE] | Not Active | Not Active | Not Active | Not Active | Not Active | Not Active | Not Active | Not Active | Not Active | Not Active | – | – | –
19 | C=CCc1ccc(O)c(OC)c1 [EUGENOL] | Not Active | Not Active | Not Active | Not Active | Not Active | Not Active | Not Active | Not Active | Not Active | Not Active | – | – | –
20 | CC(C(=O)O)c1cccc(Oc2ccccc2)c1 (stereo unspecified) [FENOPROFEN] | Not Active | Not Active | Not Active | Not Active | Not Active | Not Active | Not Active | Not Active | – | Not Active | – | – | 145 nM
21 | CC(C)(C)NC(=O)[C@H]1CC[C@H]2[C@@H]3CC[C@H]4NC(=O)C=C[C@]4(C)[C@H]3CC[C@]12C [FINASTERIDE] | Not Active | Not Active | Not Active | Not Active | Not Active | Not Active | Not Active | Not Active | Not Active | Not Active | – | – | –
22 | Nc1ccn([C@@H]2O[C@H](CO)[C@@H](O)C2(F)F)c(=O)n1 [GEMCITABINE] | Not Active | Not Active | Not Active | Not Active | Not Active | Not Active | Not Active | Not Active | Not Active | Not Active | – | – | –
23 | CC(C)=CCC/C(C)=C/CO [GERANIOL] | Not Active | Not Active | Not Active | Not Active | Not Active | Not Active | Not Active | Not Active | Not Active | Not Active | – | – | –
